Reference: patent US4810705A, “Triazolo [3,4-b]pyridazines, process for their preparation and pharmaceutical compositions containing them” (priority 1984, dated 1989)
Where two headings read alike, the source gives them in different places.

Legend:
[1] = target: benzodiazepine receptor; assay: Displacement of tritiated flunitrazepam from the benzodiazepine receptor (synaptic preparations of rat brain); type: binding; details: tritiated flunitrazepam (60 Ci/mM), 1.1 nM final, read-out: median effective concentration (IC50)
Description: ABILITY OF THE DERIVATIVES TO DISPLACE TRITIATED FLUNITRAZEPAM FROM THE BENZODIAZEPINE RECEPTOR
The studies were carried out on synaptic preparations of rat brain in accordance with the method described by Squives and Braestrup (Nature, 1977, 266, pages 732 to 734) and Mohler and Okada (Science, 1977, 198, pages 849 to 851).
The tritiated flunitrazepam (60 Ci/mM) was used at a final concentration of 1.1 nM. The results obtained with various products of the invention are shown in Table III and are expressed as median effective concentration (IC50) in μM.

[2] = Acute oral toxicity in female Charles River CD1 mice; details: mouse, in vivo, read-out: % toxicity (percentage of dead animals)
Description: Finally, the products of the invention were studied for their toxicity.
The studies were carried out on groups of 5 female Charles River mice of the CD1 strain, weighing between 20 and 24 g. The products were administered orally, diluted in 5% gum arabic. The acute toxicity was recorded during the 72 hours following administration of the product.
The results below (percentage of dead animals) were obtained as a function of the dose administered.

[3] = tested on: myorelaxation induced by diazepam; assay: Antagonism of diazepam myorelaxation, traction test in mice; type: in vivo; details: 15 min before diazepam 3 mg/kg i.p., test 60 min after product; for ED50: Mus musculus, 1 h, read-out: Antagonism of the myorelaxation, 50% effective dose (ED50)
Description: (a) Myorelaxant properties.
The studies were carried out by means of the traction test (J. R. Boissier et al., Archives Internationales de Pharmacodynamie, 1961, 135, pages 29-49). This test determines the ability of mice, placed with the front paws on a horizontally stretched wire, to grip with the back paws. The animals which have not brought the back paws onto the wire in less than 5 seconds are considered to be in a state of myorelaxation.
The products are administered 15 minutes before the intraperitoneal injection of a dose of 3 mg/kg of diazepam and the test is performed 60 minutes after administration of the product to be studied. The study was carried out on groups of 10 mice per dose.

[4] = tested on: anxiolytic effect of diazepam; assay: Antagonism of anxiolytic effect of diazepam, approach-avoidance conflict test in rats; type: in vivo; details: 60 min before diazepam 4 mg/kg i.p.
Description: The studies were carried out on rats in the approach-avoidance conflict test (L. Cook and A. B. Davidson, Effects of behaviorally active drugs in a conflict-punishment procedure in rats. In: The Benzodiazepines, S. Garattini, E. Mussini and L. O. Randall, editors, Raven Press, New York, 1973, 327-345).
A representative product of the invention, SR 95 195, was administered intraperitoneally 60 minutes before an anxiolytic dose of diazepam (4 mg/kg i.p.). The test was performed 30 minutes after administration of the diazepam.

[5] = tested on: food intake; assay: Food intake of fasted rats; type: in vivo; details: 40 mg/kg orally, first hour
Description: Furthermore, the products according to the invention were studied for their ability to reduce the food intake of fasted rats.
The studies were carried out on isolated female rats (200 to 240 g) trained to consume their food during a period of 4 hours per day. On the day of the test, 60 minutes before the food is provided, the animals receive either the product to be studied or the vehicle of administration. The quantity of food ingested during the first hour is determined.
The values shown in the table are the mean values for groups of 6 rats.

Compound | IC50 [1] [mM] | mortality at 72 h ([2]; 250 mg/kg orally) [%] | mortality at 72 h ([2]; 500 mg/kg orally) [%] | mortality at 72 h ([2]; 1000 mg/kg orally) [%] | further results
c1ccc(-c2cnn3cnnc3c2)cc1 [SR 95 194, 7-Phenyl-1,2,4-triazolo[4,3-b]pyridazine] | 0.049 | 0 | 0 | 100 | 
Cc1nnc2cc(-c3ccccc3)cnn12 [SR 95 195] | 0.009 | 0 | 0 | 80 | ED50 [3]: 26 mg/kg; % antagonism (anxiolytic effect of diazepam) ([4]; 1.25 mg/kg i.p.): 26%; % antagonism (anxiolytic effect of diazepam) ([4]; 6.25 mg/kg i.p.): 74%; % antagonism (anxiolytic effect of diazepam) ([4]; 25 mg/kg i.p.): 100%; Food intake ([5]; 60 min before food, fasted female rats, mean, groups of 6): 8.6 ± 1.5 g; Food intake, % variation relative to the control animals ([5]; p < 0.01, Student's test): -51%
Cc1nnc2cc(Cc3ccccc3)cnn12 [SR 95 252] | 0.027 | 0 | 0 | 100 | 
COc1ccc(-c2cnn3c(C)nnc3c2)cc1 [SR 95 287, 7-(4-Methoxyphenyl)-3-methyl-1,2,4-triazolo[4,3-b]pyridazine] |  | 0 | 0 | 0 | 
Cc1nnc2cc(-c3ccc(Cl)cc3)cnn12 [SR 95 369] |  | 0 | 100 | 100 | 
Cc1ccc(-c2cnn3c(C)nnc3c2)cc1 [SR 95 370] |  | 40 | 100 | 100 | 
Cc1nnc2cc(-c3cccc(Cl)c3)cnn12 [SR 95 398] | 0.0026 | 0 | 0 |  | ED50 [3]: 20 mg/kg
Cc1nnc2cc(CCc3ccccc3)cnn12 [SR 95 410] |  | 0 | 0 | 0 | 
Cc1nnc2cc(-c3ccccc3Cl)cnn12 [SR 95 437] |  | 0 | 0 |  | 
c1ccc(Cc2nnc3cc(-c4ccccc4)cnn23)cc1 [SR 95 491, 7-Phenyl-3-benzyl-1,2,4-triazolo[4,3-b]pyridazine] | 0.0045 |  |  |  | 
Clc1ccc(-c2nnc3cc(-c4ccccc4)cnn23)cc1 [SR 95 492] |  | 0 | 0 |  | 
c1ccc(-c2cnn3c(-c4ccccc4)nnc3c2)cc1 [SR 95 494] | 0.05 | 0 | 0 |  | 
Cc1nnc2cc(-c3cccc(C(F)(F)F)c3)cnn12 [SR 95 533] | 0.0029 |  |  |  | Antagonism of the myorelaxation, effect (dose) ([3]; at 100 mg/kg): 100%
